Measured values taken from US20250275995A1, “NICOTINAMIDE RIBOSIDE DOSAGE REGIMEN FOR TREATING PARKINSON'S DISEASE” (VESTLANDETS INNOVASJONSSELSKAP AS (VIS), priority 2022, published 2025).

Key:
blood NAD^+ levels = test: NAD-brain pharmacokinetic study: whole blood NAD+ response; assay type: in vivo, human
Description: The NAD-brain study performs a parallel assessment of NAD replenishment therapy pharmacokinetics in the blood and brain of healthy human subjects and subjects with Parkinson's disease (PD). A total of 10 healthy individuals (5 men and 5 women) and 10 individuals with PD (5 men and 5 women) undergo repeated blood sampling and 31P-MRS brain scans during two 20-day periods, each of which starts with 8 days of daily intake of NR 600 mg×2, or NMN 600 mg×2. The two 20-day period is 14 days apart to allow for washout of the previous compound. Blood is analyzed for NR and NAD-metabolites using HPLC-MS. By this approach, we measured the simultaneous change in NAD-metabolism overtime in blood and brain and establish blood and brain pharmacokinetics for NAD replenishment therapy in humans.
NR (Niagen®, Chromadex) at a dose of 600 mg×2 daily). NMN (Restorin®, from Seragon Pharmaceutics, or MIB-626 from Metro International Biotech) at a dose of 600 mg×2 daily.
• At screening, participants are assessed for eligibility, inclusion/exclusion criteria, medical history and concomitant medication is recorded, and informed consent signed. • The NAD-brain study performs a parallel assessment of NAD replenishment therapy pharmacokinetics in the blood and brain of healthy human subjects and subjects with Parkinson's disease (PD). Healthy individuals and individuals with PD undergo repeated blood sampling and 31P-MRS brain scans during two 20-day periods, each of which starts with 8 days of daily intake of NR 600 mg×2, or NMN 600 mg×2 (Table 10). • For each 20-day period the testing (i.e., scanning and blood draw) frequency is shown in Table 10, below. The two 20-day periods are 14 days apart to allow for washout of the previous compound.
Blood is analyzed for NR and NAD-metabolites using HPLC-MS metabolomics. Snap-frozen whole blood is used for the analysis of NAD^+. Blood is drawn from the participant in EDTA tube (VACUETTE® TUBE 2 ml K2E K2EDTA). The EDTA tube is gently inverted at least 10 times without shaking; 8×200 μl of blood from the EDTA tube is aliquoted into 8×0.5 ml micro tubes; these are closed, and all the micro tubes are immerse simultaneously in liquid nitrogen within 2 min from when blood has started flowing into the EDTA tube; then transferred frozen to −80° C. freezer for storage; stored at −80C in freezer-compatible cardboard or plastic storage boxes; and shipped on dry ice.
This is a pharmacokinetic (PK) study where 6 healthy individuals (3 male and 3 female): • 1) Received NR 1200 mg daily (600 mg×2) for 8 days, followed by an additional 11 days follow up, while undergoing serial blood and brain NAD-measurement. • 2) Received NMN 1200 mg daily (600 mg×2) for 8 days, followed by an additional 11 days follow up, while undergoing serial blood and brain NAD-measurement.
The individuals were mixed, so that in stage-1 three individuals received NR and three individuals received NMN, then in stage-2 they switched (Cross-over design). There were almost three weeks (20 days) of washout between the last dose of the first compound, and before the first dose of the second compounds.

brain NAD levels = test: NAD-brain pharmacokinetic study: brain NAD by 31P-MRS; assay type: in vivo, human; conditions: 11 days after last dose, 1200 mg daily for 8 days
Description: • At screening, participants are assessed for eligibility, inclusion/exclusion criteria, medical history and concomitant medication is recorded, and informed consent signed. • The NAD-brain study performs a parallel assessment of NAD replenishment therapy pharmacokinetics in the blood and brain of healthy human subjects and subjects with Parkinson's disease (PD). Healthy individuals and individuals with PD undergo repeated blood sampling and 31P-MRS brain scans during two 20-day periods, each of which starts with 8 days of daily intake of NR 600 mg×2, or NMN 600 mg×2 (Table 10). • For each 20-day period the testing (i.e., scanning and blood draw) frequency is shown in Table 10, below. The two 20-day periods are 14 days apart to allow for washout of the previous compound. This is a pharmacokinetic (PK) study where 6 healthy individuals (3 male and 3 female): • 1) Received NR 1200 mg daily (600 mg×2) for 8 days, followed by an additional 11 days follow up, while undergoing serial blood and brain NAD-measurement. • 2) Received NMN 1200 mg daily (600 mg×2) for 8 days, followed by an additional 11 days follow up, while undergoing serial blood and brain NAD-measurement. The individuals were mixed, so that in stage-1 three individuals received NR and three individuals received NMN, then in stage-2 they switched (Cross-over design). There were almost three weeks (20 days) of washout between the last dose of the first compound, and before the first dose of the second compounds. In the brain, total NAD (NAD^++NADH) levels were measured by 31P-MRS as previously described^19. […] 19 Brakedal, B. et al. The […] study: A randomized phase I trial of nicotinamide riboside supplementation in Parkinson's disease. Cell Metab 34, 396-407.e6 (2022).

adult humans = conditions: dosages above 50-100 mg; cited from earlier work

| SMILES | blood NAD^+ levels (blood NAD^+ levels; 1200 mg daily (600 mg×2) for 8 days, 6 healthy individuals) | day of maximal NAD levels in the blood (blood NAD^+ levels; 1200 mg daily for 8 days, last dose morning of day 8) [days] | plateau of blood NAD^+ levels (blood NAD^+ levels; after 8 days of precursor intake, 1200 mg daily) | NAD levels at day 19 (brain NAD levels) | flushing with NAD precursor supplementation (adult humans) |
| --- | --- | --- | --- | --- | --- |
| NC(=O)c1ccc[n+]([C@@H]2O[C@H](COP(=O)([O-])O)[C@@H](O)[C@H]2O)c1 [NMN, Nicotinamide Mononucleotide] | increased in all individuals | 8 | did not plateau after 8 days | returned to baseline by day 19 | – |
| O=C(O)c1cccnc1 [nicotinic acid] | – | – | – | – | painful flushing |
